Values belong to the compound of their own block, whether it stands above or below them.
Tested on: 362531-283-R-J2-PDC complex spheroid viability
Test: Anticancer human tumor 362531-283-R-J2-PDC patient-derived colon adenocarcinoma cell line growth inhibition [RAS]
Conditions: for IC50: curve of first compound; for viability, T/C: stronger effect = lower value
In short: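 Multi-cell-type spheroids: tumor cells plus HUVEC endothelial cells and mesenchymal stem cells. RAS-pathway inhibitors were combined with targeted agents, each dosed in half-log steps down from clinical Cmax, or from 10 microM when Cmax was unknown.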

[1] = second compound 0.0316 µM, first compound 0.00316 µM
[2] = second compound 0.0316 µM, first compound 0.01 µM
[3] = second compound 0.0316 µM, first compound 0.0316 µM
[4] = second compound 0.0316 µM, first compound 0.1 µM
[5] = second compound 0.0316 µM, first compound 0.316 µM
[6] = second compound 0.0316 µM, first compound 1 µM
[7] = second compound 0.1 µM, first compound 0.00316 µM
[8] = second compound 0.1 µM, first compound 0.01 µM
[9] = second compound 0.1 µM, first compound 0.0316 µM
[10] = second compound 0.1 µM, first compound 0.1 µM
[11] = second compound 0.1 µM, first compound 0.316 µM
[12] = second compound 0.1 µM, first compound 1 µM
[13] = second compound 0.316 µM, first compound 0.00316 µM
[14] = second compound 0.316 µM, first compound 0.01 µM
[15] = second compound 0.316 µM, first compound 0.0316 µM
[16] = second compound 0.316 µM, first compound 0.1 µM
[17] = second compound 0.316 µM, first compound 0.316 µM
[18] = second compound 0.316 µM, first compound 1 µM
[19] = second compound 1 µM, first compound 0.00316 µM
[20] = second compound 1 µM, first compound 0.01 µM
[21] = second compound 1 µM, first compound 0.0316 µM
[22] = second compound 1 µM, first compound 0.1 µM
[23] = second compound 1 µM, first compound 0.316 µM
[24] = second compound 1 µM, first compound 1 µM
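Note: spheroids exposed to the agents for 7 days before readout.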
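Throughout, for viability, T/C: luminescence viability as percent of DMSO vehicle control wells.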

IC50 (second compound 0.0316 µM): 0.0422 µM | IC50 (second compound 0.1 µM): 0.0224 µM | IC50 (second compound 0.316 µM): 0.0166 µM | IC50 (second compound 1 µM): 0.0114 µM | IC50 (second compound 3.16 µM): 0.00245 µM | IC50 (second compound 10 µM): < 0.000949 µM
Compound: CCc1c2c(nc3ccc(O)cc13)-c1cc3c(c(=O)n1C2)COC(=O)[C@]3(O)CC + C#Cc1c(F)ccc2cc(O)cc(-c3ncc4c(N5CC6CCC(C5)N6)nc(OCC56CCCN5CC(F)C6)nc4c3F)c12
viability, T/C (second compound 0.0316 µM, first compound 0.000949 µM): 95.2% | viability, T/C (second compound 0.0316 µM, first compound 0.003 µM): 91.8% | viability, T/C (second compound 0.0316 µM, first compound 0.00949 µM): 71.5% | viability, T/C (second compound 0.0316 µM, first compound 0.03 µM): 60.6% | viability, T/C (second compound 0.0316 µM, first compound 0.0949 µM): 32.3% | viability, T/C (second compound 0.0316 µM, first compound 0.3 µM): 18% | viability, T/C (second compound 0.1 µM, first compound 0.000949 µM): 92.7% | viability, T/C (second compound 0.1 µM, first compound 0.003 µM): 85.8% | viability, T/C (second compound 0.1 µM, first compound 0.00949 µM): 64.3% | viability, T/C (second compound 0.1 µM, first compound 0.03 µM): 47.2% | viability, T/C (second compound 0.1 µM, first compound 0.0949 µM): 25.3% | viability, T/C (second compound 0.1 µM, first compound 0.3 µM): 21.2% | viability, T/C (second compound 0.316 µM, first compound 0.000949 µM): 84.9% | viability, T/C (second compound 0.316 µM, first compound 0.003 µM): 84.3% | viability, T/C (second compound 0.316 µM, first compound 0.00949 µM): 57.7% | viability, T/C (second compound 0.316 µM, first compound 0.03 µM): 40.5% | viability, T/C (second compound 0.316 µM, first compound 0.0949 µM): 18.2% | viability, T/C (second compound 0.316 µM, first compound 0.3 µM): 13.9% | viability, T/C (second compound 1 µM, first compound 0.000949 µM): 72.7% | viability, T/C (second compound 1 µM, first compound 0.003 µM): 76% | viability, T/C (second compound 1 µM, first compound 0.00949 µM): 51.2% | viability, T/C (second compound 1 µM, first compound 0.03 µM): 30.2% | viability, T/C (second compound 1 µM, first compound 0.0949 µM): 18.5% | viability, T/C (second compound 1 µM, first compound 0.3 µM): 12.1% | viability, T/C (second compound 3.16 µM, first compound 0.000949 µM): 58.2% | viability, T/C (second compound 3.16 µM, first compound 0.003 µM): 50.5% | viability, T/C (second compound 3.16 µM, first compound 0.00949 µM): 29% | viability, T/C (second compound 3.16 µM, first compound 0.03 µM): 19.8% | viability, T/C (second compound 3.16 µM, first compound 0.0949 µM): 16.1% | viability, T/C (second compound 3.16 µM, first compound 0.3 µM): 7.69% | viability, T/C (second compound 10 µM, first compound 0.000949 µM): 39.3% | viability, T/C (second compound 10 µM, first compound 0.003 µM): 26.9% | viability, T/C (second compound 10 µM, first compound 0.00949 µM): 18.8% | viability, T/C (second compound 10 µM, first compound 0.03 µM): 16.2% | viability, T/C (second compound 10 µM, first compound 0.0949 µM): 12.3% | viability, T/C (second compound 10 µM, first compound 0.3 µM): 8.32%

IC50 (second compound 0.00316 µM): 0.129 µM | IC50 (second compound 0.01 µM): 0.169 µM | IC50 (second compound 0.0316 µM): 0.154 µM | IC50 (second compound 0.1 µM): 0.13 µM | IC50 (second compound 0.316 µM): 0.18 µM | IC50 (second compound 1 µM): 0.144 µM
Compound: Nc1ccn(C2OC(CO)C(O)C2(F)F)c(=O)n1 (stereo unspecified) + C=CC(=O)N1CCN(c2nc(OCC3CCCN3C)nc3c(F)c(-c4nc(N)cc(C)c4C(F)(F)F)c(Cl)cc23)C(C)C1
viability, T/C (second compound 0.00316 µM, first compound 0.00316 µM): 107% | viability, T/C (second compound 0.00316 µM, first compound 0.01 µM): 100% | viability, T/C (second compound 0.00316 µM, first compound 0.0316 µM): 81.2% | viability, T/C (second compound 0.00316 µM, first compound 0.1 µM): 61.8% | viability, T/C (second compound 0.00316 µM, first compound 0.316 µM): 22.7% | viability, T/C (second compound 0.00316 µM, first compound 1 µM): 29.7% | viability, T/C (second compound 0.01 µM, first compound 0.00316 µM): 93.5% | viability, T/C (second compound 0.01 µM, first compound 0.01 µM): 95.3% | viability, T/C (second compound 0.01 µM, first compound 0.0316 µM): 80.9% | viability, T/C (second compound 0.01 µM, first compound 0.1 µM): 70% | viability, T/C (second compound 0.01 µM, first compound 0.316 µM): 21.7% | viability, T/C (second compound 0.01 µM, first compound 1 µM): 30.7% | viability, T/C [1]: 93.5% | viability, T/C [2]: 91% | viability, T/C [3]: 87.7% | viability, T/C [4]: 64.9% | viability, T/C [5]: 23.6% | viability, T/C [6]: 27% | viability, T/C [7]: 94.9% | viability, T/C [8]: 94.9% | viability, T/C [9]: 77.4% | viability, T/C [10]: 61% | viability, T/C [11]: 23.6% | viability, T/C [12]: 31.7% | viability, T/C [13]: 93.8% | viability, T/C [14]: 97.1% | viability, T/C [15]: 89.4% | viability, T/C [16]: 75.7% | viability, T/C [17]: 23.3% | viability, T/C [18]: 27.6% | viability, T/C [19]: 105% | viability, T/C [20]: 97.9% | viability, T/C [21]: 78.9% | viability, T/C [22]: 65.2% | viability, T/C [23]: 25.1% | viability, T/C [24]: 29.7%

IC50 (second compound 0.0316 µM): > 1 µM | IC50 (second compound 0.1 µM): > 1 µM | IC50 (second compound 0.316 µM): > 1 µM | IC50 (second compound 1 µM): > 1 µM | IC50 (second compound 3.16 µM): > 1 µM | IC50 (second compound 10 µM): < 0.00316 µM
Compound: C=CC(=O)N1CCN(c2nc(OCC3CCCN3C)nc3c(F)c(-c4nc(N)cc(C)c4C(F)(F)F)c(Cl)cc23)C(C)C1 (stereo unspecified) + C#Cc1c(F)ccc2cc(O)cc(-c3ncc4c(N5CC6CCC(C5)N6)nc(OCC56CCCN5CC(F)C6)nc4c3F)c12
viability, T/C [1]: 98.1% | viability, T/C [2]: 94.4% | viability, T/C [3]: 95.5% | viability, T/C [4]: 98.4% | viability, T/C [5]: 97.8% | viability, T/C [6]: 89.6% | viability, T/C [7]: 93.6% | viability, T/C [8]: 93.1% | viability, T/C [9]: 97.1% | viability, T/C [10]: 92.3% | viability, T/C [11]: 98.7% | viability, T/C [12]: 98.3% | viability, T/C [13]: 82.6% | viability, T/C [14]: 78.6% | viability, T/C [15]: 90.9% | viability, T/C [16]: 97.8% | viability, T/C [17]: 89.3% | viability, T/C [18]: 90.7% | viability, T/C [19]: 80.7% | viability, T/C [20]: 74.4% | viability, T/C [21]: 82.7% | viability, T/C [22]: 70.4% | viability, T/C [23]: 82.7% | viability, T/C [24]: 74.4% | viability, T/C (second compound 3.16 µM, first compound 0.00316 µM): 66.5% | viability, T/C (second compound 3.16 µM, first compound 0.01 µM): 69% | viability, T/C (second compound 3.16 µM, first compound 0.0316 µM): 71.2% | viability, T/C (second compound 3.16 µM, first compound 0.1 µM): 80.8% | viability, T/C (second compound 3.16 µM, first compound 0.316 µM): 58.1% | viability, T/C (second compound 3.16 µM, first compound 1 µM): 71.7% | viability, T/C (second compound 10 µM, first compound 0.00316 µM): 39.9% | viability, T/C (second compound 10 µM, first compound 0.01 µM): 48% | viability, T/C (second compound 10 µM, first compound 0.0316 µM): 46.7% | viability, T/C (second compound 10 µM, first compound 0.1 µM): 38.1% | viability, T/C (second compound 10 µM, first compound 0.316 µM): 49.6% | viability, T/C (second compound 10 µM, first compound 1 µM): 42.7%

Source: PubChem BioAssay AID2060909 (Molecular Pharmacology Branch, DTP, NCI, 2025)
